Measured values as given in the SangsterLogP compilation.

| SMILES | logP |
| --- | --- |
| O=S(=O)(Cc1ccc(Cl)cc1)NCCCCc1cnc[nH]1 | 2.23 |
| c1ccc2sc(SCCc3cnc[nH]3)nc2c1 | 3.12 |
| S=C(NC1CCCCC1)N1CCC(c2cnc[nH]2)CC1 | 2.4 |
| Clc1ccc2[nH]c(NCCCc3cnc[nH]3)nc2c1 | 2.49 |
| c1ncc(CCCc2nc(C3CCCCC3)c[nH]2)[nH]1 | 2.94 |
| c1ccc2sc(NCCCc3cnc[nH]3)nc2c1 | 2.71 |
| c1ccc(-c2cnc(SCCc3cnc[nH]3)[nH]2)cc1 | 2.45 |
| c1ccc(-c2c[nH]c(CCCc3cnc[nH]3)n2)cc1 | 2.5 |
| Clc1ccc(Cc2noc(CCc3cnc[nH]3)n2)cc1 | 2.51 |
| c1ccc2sc(SCCCc3cnc[nH]3)nc2c1 | 3.24 |
| c1ccc2sc(NCCc3c[nH]cn3)nc2c1 | 2.36 |
